Reference: US4906612A (priority 1988, dated 1990)
Values after ≈ are worked out from the molar mass of the structure shown. Read-outs that look alike come from different tables or passages of the source.

Tests used:
[1] = LD50 when intravenously injected in male mice; assay type: in vivo
Excerpt: The growth-promoting agent of the present invention not only promotes the growth of animals, but also improves feed utilization efficiency. The agent is also effective for the treatment of bacterial diseases.

[2] = tested on: Cl. perfringens; assay type: cell-based, Clostridium perfringens; settings: GAM agar, 24 hours at 37° C.
[3] = Growth promoting effect on chicks, 20 ppm in feed for 10 days (Table 2); assay type: in vivo; settings: for Body weight gain, mean value ± standard error: chicks 8 to 18 days of age, 20 ppm in feed × 10 days; for Feed efficiency: chicks, no antibiotic group 1.70; for Body weight gain index: no antibiotic group = 100.0
Description: Growth promoting effect of PA-42867-A on chicks (8 days of age, Abaeker species) was determined using a known antibiotic, Thiopeptin, as a control. PA-42867-A and Thiopeptin were added to an antibiotic-free feed mash (crude protein content (CP): 18%) at a concentration of 20 ppm, and the chicks were raised for 10 days with the resulting feed according to the battery method. Specifically describing the method of experiment, newly hatched chicks were fed until 8 days of age with a feed ration of 23% CP by the flat feeding method, at which time the chicks were divided into three groups each containing 25-26 chicks (males and females, 12-13 chicks each) so that the average weights of the chicks in all groups were nearly the same. PA-42867-A group received 20 ppm of the antibiotic a day for 10 days, Thiopeptin group received 20 ppm for 10 days, and the control group received antibiotic-free feed of 18% CP for 10 days. The above feeding was conducted after dividing the chicks in each of these groups into sub-groups of 6-7 chicks and putting each sub-group in a cage (435×600×410 mm). The feeding was conducted for 10 days (until 18 days of age) at an environmental temperature of 26°±2°C. The effectiveness of the drug was evaluated based on the body weight gain and the feed efficiency observed during the 10 days period of the experiment.

[4] = Growth promoting effect on chicks, 20 ppm in feed for 13 days (Table 3); assay type: in vivo; settings: for Feed efficiency, 10 days / Feed efficiency, 13 days / Body weight gain ± standard error, 13 days / Body weight gain ± standard error, 10 days: 20 ppm in feed; for Feed efficiency, 10 days / Body weight gain comparative index, 10 days: 10th day; for Feed efficiency, 10 days: no antibiotic group 1.69; for Feed efficiency, 13 days / Body weight gain comparative index, 13 days: 13th day; for Feed efficiency, 13 days: no antibiotic group 1.76; for Body weight gain ± standard error, 13 days: chicks 8-21 days of age, measured on the 13th day; for Body weight gain ± standard error, 10 days: chicks from 8 days of age, measured on the 10th day; for Body weight gain comparative index, 10 days / Body weight gain comparative index, 13 days: weight gain of the control group regarded as 100
Description: In the same manner, another growth promoting tests were conducted on des-(4-epi-vancosaminyl)PA-42867-A and des-(4-epi-vancosaminyl-0-glucosyl)PA-42867-A by giving 20 ppm of the test drug to chicks of 8-21 days of age for 13 days, using Thiopeptin as a control.
The newly hatched chicks were fed until eight days of age with a feed mash (crude protein content (CP):23%) without addition of any antibiotic by means of the flat feeding. Then, the chicks were divided into four groups each containing 24 chicks (males and females, 12 each). Each group was placed in four cages after dividing into four unisexual sub-groups, each consisting of 6-7 chicks, and raised for 13 days with an animal feed of CP 18% with or without antibiotics. Thus, each of four groups received 20 ppm of des-(4-epi-vancosaminyl)PA-42867-A, 20 ppm of des(4-epi-vancosaminyl-0-glucosyl)PA-42867-A, 20 ppm of Thiopeptin, and no antibiotic, respectively.
Body weight gain and feed efficiency were measured on the 10th and the 13th day.

CNC(CC(C)C)C(=O)NC1C(=O)NC(CC(N)=O)C(=O)NC2C(=O)NC3C(=O)NC(C(=O)NC(C(=O)O)c4cc(O)cc(O)c4-c4cc3ccc4O)C(OC3CC(C)(N)C(O)C(C)O3)c3ccc(c(Cl)c3)Oc3cc2cc(c3O)Oc2ccc(cc2)C1O (stereo not drawn) [Compound 3, des-(4-epi-vancosaminyl-0-glucosyl)PA-42867-A]
LD50 [1]: 205 mg/kg | MIC ([2]; strain 3C-01, origin chicken): 0.78 µg/mL (≈ 0.623 µM) | MIC ([2]; strain 6B-10, origin cow): 0.78 µg/mL (≈ 0.623 µM) | MIC ([2]; strain 9C-02, origin chicken): 0.78 µg/mL (≈ 0.623 µM) | MIC ([2]; strain 02441, origin chicken): 0.78 µg/mL (≈ 0.623 µM) | MIC ([2]; strain CW-1970, origin cow): 0.78 µg/mL (≈ 0.623 µM) | MIC ([2]; strain FC 2208/75, origin cow): 0.78 µg/mL (≈ 0.623 µM) | MIC ([2]; strain NCTC-8239, origin cow): 0.78 µg/mL (≈ 0.623 µM) | MIC ([2]; strain NCTC-8798, origin cow): 0.78 µg/mL (≈ 0.623 µM) | MIC ([2]; strain NCTC-10239, origin cow): 0.78 µg/mL (≈ 0.623 µM) | MIC ([2]; strain S-79, origin cow): 0.39 µg/mL (≈ 0.311 µM) | MIC ([2]; strain SP07, origin chicken): 0.78 µg/mL (≈ 0.623 µM)

CNC(CC(C)C)C(=O)NC1C(=O)NC(CC(N)=O)C(=O)NC2C(=O)NC3C(=O)NC(C(=O)NC(C(=O)O)c4cc(O)cc(O)c4-c4cc3ccc4O)C(OC3CC(C)(N)C(O)C(C)O3)c3ccc(c(Cl)c3)Oc3cc2cc(c3OC2OC(CO)C(O)C(O)C2OC2CC(C)(N)C(O)C(C)O2)Oc2ccc(cc2)C1O (stereo not drawn) [Compound 1, PA-42867-A]
LD50 [1]: 1955 mg/kg | MIC ([2]; strain 3C-01, origin chicken): 0.39 µg/mL (≈ 0.25 µM) | MIC ([2]; strain 6B-10, origin cow): 0.2 µg/mL (≈ 0.128 µM) | MIC ([2]; strain 9C-02, origin chicken): 0.2 µg/mL (≈ 0.128 µM) | MIC ([2]; strain 02441, origin chicken): 0.39 µg/mL (≈ 0.25 µM) | MIC ([2]; strain CW-1970, origin cow): 0.39 µg/mL (≈ 0.25 µM) | MIC ([2]; strain FC 2208/75, origin cow): 0.39 µg/mL (≈ 0.25 µM) | MIC ([2]; strain NCTC-8239, origin cow): 0.39 µg/mL (≈ 0.25 µM) | MIC ([2]; strain NCTC-8798, origin cow): 0.39 µg/mL (≈ 0.25 µM) | MIC ([2]; strain NCTC-10239, origin cow): 0.39 µg/mL (≈ 0.25 µM) | MIC ([2]; strain S-79, origin cow): 0.39 µg/mL (≈ 0.25 µM) | MIC ([2]; strain SP07, origin chicken): 0.39 µg/mL (≈ 0.25 µM) | Feed efficiency compared with the group raised with antibiotic-free feed (in words) ([3]; 20 ppm × 10 days): better results in feed efficiency | Body weight gain compared with the no-antibiotic control group and the Thiopeptin group (in words) ([3]; 20 ppm × 10 days, p<0.01): significantly high body weight gain | Body weight gain, mean value ± standard error [3]: 332.0 ± 6.71 g | Feed efficiency ([3]; 20 ppm × 10 days): 1.53 | Body weight gain index ([3]; 20 ppm × 10 days): 110.0 | Feed efficiency, 10 days [4]: 1.54 | Feed efficiency, 13 days [4]: 1.66 | Body weight gain ± standard error, 13 days [4]: 442.6 ± 7.8 g | Body weight gain ± standard error, 10 days [4]: 328.9 ± 6.3 g | Body weight gain comparative index, 10 days [4]: 105.4 | Body weight gain comparative index, 13 days [4]: 103.9

Thiopeptin [reference compound]
Feed efficiency compared with the group raised with antibiotic-free feed (in words) ([3]; 20 ppm × 10 days): better results in feed efficiency | Body weight gain, mean value ± standard error [3]: 313.7 ± 8.80 g | Feed efficiency ([3]; 20 ppm × 10 days): 1.58 | Body weight gain index ([3]; 20 ppm × 10 days): 103.9 | Feed efficiency, 10 days [4]: 1.61 | Feed efficiency, 13 days [4]: 1.70 | Body weight gain ± standard error, 13 days [4]: 445.5 ± 11.1 g | Body weight gain ± standard error, 10 days [4]: 319.5 ± 7.5 g | Body weight gain comparative index, 10 days [4]: 102.4 | Body weight gain comparative index, 13 days [4]: 104.6

CNC(CC(C)C)C(=O)NC1C(=O)NC(CC(N)=O)C(=O)NC2C(=O)NC3C(=O)NC(C(=O)NC(C(=O)O)c4cc(O)cc(O)c4-c4cc3ccc4O)C(OC3CC(C)(N)C(O)C(C)O3)c3ccc(c(Cl)c3)Oc3cc2cc(c3OC2OC(CO)C(O)C(O)C2O)Oc2ccc(cc2)C1O (stereo not drawn) [Compound 2, des-(4-epi-vancosaminyl) PA-42867-A]
LD50 [1]: > 3000 mg/kg | MIC ([2]; strain 3C-01, origin chicken): 1.56 µg/mL (≈ 1.1 µM) | MIC ([2]; strain 6B-10, origin cow): 1.56 µg/mL (≈ 1.1 µM) | MIC ([2]; strain 9C-02, origin chicken): 1.56 µg/mL (≈ 1.1 µM) | MIC ([2]; strain 02441, origin chicken): 1.56 µg/mL (≈ 1.1 µM) | MIC ([2]; strain CW-1970, origin cow): 1.56 µg/mL (≈ 1.1 µM) | MIC ([2]; strain FC 2208/75, origin cow): 1.56 µg/mL (≈ 1.1 µM) | MIC ([2]; strain NCTC-8239, origin cow): 1.56 µg/mL (≈ 1.1 µM) | MIC ([2]; strain NCTC-8798, origin cow): 1.56 µg/mL (≈ 1.1 µM) | MIC ([2]; strain NCTC-10239, origin cow): 1.56 µg/mL (≈ 1.1 µM) | MIC ([2]; strain S-79, origin cow): 0.78 µg/mL (≈ 0.551 µM) | MIC ([2]; strain SP07, origin chicken): 1.56 µg/mL (≈ 1.1 µM) | Feed efficiency, 10 days [4]: 1.62 | Feed efficiency, 13 days [4]: 1.66 | Body weight gain ± standard error, 13 days [4]: 447.4 ± 11.5 g | Body weight gain ± standard error, 10 days [4]: 324.6 ± 8.3 g | Body weight gain comparative index, 10 days [4]: 104.0 | Body weight gain comparative index, 13 days [4]: 105.0
